The text below walks through data of publication PMC12165799, “Antimicrobial peptide developed with machine learning sequence optimization targets drug resistant Staphylococcus aureus in mice” (The Journal of Clinical Investigation, 2025).

Data set [1] can be described thus: HPLC retention time on C18 reverse-phase column. It counts as physicochemical. The source says: Table 1 Physical parameters and minimal inhibitory concentrations of citropin 1.1-derived peptides against S. aureus MW2 | column: rT^D (min)
The subject of data set [2] is S. aureus MW2. The data set can be described thus: Minimal inhibitory concentration (MIC) assay, broth microdilution. As to conditions: S. aureus MW2; broth microdilution, TSB, 1 × 10^6 CFU/ml, 37°C 18 h, OD600, duplicate. The format is cell-based, Staphylococcus aureus. Here is the method: 300 Synthesis of peptides
302 Piscataway, NJ, USA).
305 Minimal inhibitory concentration (MIC) assay
We made serial dilutions of 10×
We determined the MIC using OD600
Accordingly, we added 150 mM NaCl,
319 established protocol (5).

The test system of data set [3] is HepG2 cells. Description: Mammalian cell cytotoxicity assay.
Experimental: 410 the HepG2 cells at 37°C in 5% CO2 in Dulbecco’s Modified Eagle Medium (DMEM) (Gibco, MA,
We harvested and resuspended cells in fresh DMEM
For data set [4], the system named is S. aureus MW2 skin infection. Description: Skin-abraded murine infection, prophylactic (acute) model, bacterial load. The format is in vivo, mice. As to conditions: for Bacterial load from skin specimens, prophylactic model: 2% ointment 10 minutes after infection. Here is the method: (§1) 599 In vivo murine skin infection and treatment
(§2) 600 We used a topical skin-abraded murine infection model with minor modifications to test
(§3) 601 the in vivo efficacy of the CIT-8 peptide (25). We performed all mouse studies following the
(§4) 602 protocol approved by the Institutional Animal Care and Use Committee. In brief, we anesthetized
(§5) 603 female C57BL/6 mice (6 weeks) (Jackson Laboratory, Bar Harbor, ME, USA) with ketamine-
(§6) 604 xylazine (90 mg/kg ketamine and 10 mg/kg xylazine) via intraperitoneal injection. We shaved the
(§7) 605 dorsal side of the mice in the middle of the back (area=2 cm2). To disrupt skin integrity, we tape-
(§8) 606 stripped with Tensoplast® seven times in succession, replacing the tape each time, resulting in
(§9) 607 visibly damaged skin. We infected the damaged skin area with 1 × 10^7 CFU of S. aureus MW2
(§10) 608 (exponential phase bacteria in PBS) with an inoculum of 50 µl using a pipette tip. Ten minutes
(§11) 609 (prophylactic model) and 24 h (established model) after bacterial inoculation, we applied 30 mg
(§12) 610 of 1 and 2% (w/w) CIT-8 ointment in a white petroleum jelly base (Cat no. 19-090-843, Fisher
(§13) 611 Scientific, MA, USA) to the skin. We also included animal groups treated with only petroleum
(§14) 612 jelly or with 2% commercial mupirocin ointment as negative and positive controls, respectively.
(§15) 613 For pain management, we used the analgesic buprenorphine SR (0.05 mg/kg).
(§16) 614 After 24 h of treatment, we euthanized the animals, separated the skin from the underlying
(§17) 615 fascia and muscle tissue, and excised about 2 cm2 of skin from the infected area. We ground the
(§18) 616 skin in 1ml of PBS buffer (Gibco, MD, USA). We serially diluted 100 µl of the solution in PBS
(§19) 617 and plated it on Remel™ TSA plates (Fisher, MA, USA) to estimate viable colony counts after 18
(§20) 618 h of incubation at 37 °C. Further, we added 10 µl of EDTA-Free, protease inhibitor cocktail Set III
(§21) 619 (Millipore Sigma, MA, USA) to 500 µl of the ground skin PBS solution for cytokine estimation.
(§22) 620 The Cytokine Core, LLC (Indianapolis, IN, USA) performed the cytokine concentration analysis

Data set [5] has as its system S. aureus MW2 skin infection. Description: Skin-abraded murine infection, established infection model, bacterial load. The format is in vivo, mice. The arrangement: Bacterial load from skin specimens, established infection model / bacterial load in skin, Sup. Fig. 12: unit not given here. Particulars: for Bacterial load from skin specimens, established infection model: 2% ointment 24 hours after infection; for bacterial load in skin, Sup. Fig. 12: 2%, mice. Here is the method: as §1, §2, §3, §4, §5, §6, §7, §8, §9, §10, §11, §12, §13, §14, §15, §16, §17, §18, §19, §20, §21, §22

As for H-GLFDVIKKVASVI-NH2 [CIT-1], the “rT (HPLC retention time)” value in data set [1] stood at 17.570 min. For the same molecule, the “MIC SA” value in data set [2] was above 32 µg/mL.
As for H-GLFSVIKKVASVI-NH2 [CIT-2], in data set [1], the “rT (HPLC retention time)” value came to 15.711 min. Moreover, the “MIC SA” value in data set [2] was above 32 µg/mL.
As to `CNC(C)C1CCC(N)C(OC2C(N)CC(N)C(OC3OCC(C)(O)C(NC)C3O)C2O)O1` (stereo not drawn) [gentamicin, reference compound], the “HepG2 cell viability, Sup. Fig. 4B” value is on record as 100.314 in data set [3] (4 μg/ml, replicate 1); 105.383 in data set [3] (4 μg/ml, replicate 2); 105.587 in data set [3] (4 μg/ml, replicate 3); 101.846 in data set [3] (8 μg/ml, replicate 1); 103.015 in data set [3] (8 μg/ml, replicate 2); 101.846 in data set [3] (8 μg/ml, replicate 3). Further, the “HepG2 cell viability, Sup. Fig. 4B” value amounted to 102.511 in data set [3] (16 μg/ml, replicate 1); 103.671 in data set [3] (16 μg/ml, replicate 2); 100.107 in data set [3] (16 μg/ml, replicate 3); 102.999 in data set [3] (32 μg/ml, replicate 1); 106.118 in data set [3] (32 μg/ml, replicate 2); 103.265 in data set [3] (32 μg/ml, replicate 3). The “HepG2 cell viability, Sup. Fig. 4B” value in data set [3] (64 μg/ml, replicate 1) was 103.75; in data set [3] (64 μg/ml, replicate 2), 104.801; in data set [3] (64 μg/ml, replicate 3) it was 97.7499; in data set [3] (128 μg/ml, replicate 1) it was 104.41; in data set [3] (128 μg/ml, replicate 2), 112.88; in data set [3] (128 μg/ml, replicate 3), 101.795.
Take H-GLFKVIKKVAKVI-NH2 [CIT-4]: in data set [1], the “rT (HPLC retention time)” value was determined as 17.776 min. Moreover, the “MIC SA” value in data set [2] was above 32 µg/mL.
With H-GLFKVIKKVASVI-NH2 [CIT-3], the “rT (HPLC retention time)” value in data set [1] is 17.400 min. Besides, in data set [2], the “MIC SA” value is above 32 µg/mL.
In the case of H-GLFKVIKKLLSVI-NH2 [CIT-7], in data set [1], the “rT (HPLC retention time)” value is reported as 19.956 min. In addition, in data set [2], the “MIC SA” value was 4 µg/mL.
`C/C(=C\C(=O)OCCCCCCCCC(=O)O)C[C@@H]1OC[C@H](C[C@@H]2O[C@H]2[C@@H](C)[C@H](C)O)[C@@H](O)[C@H]1O` [mupirocin, reference compound]: the “Bacterial load from skin specimens, prophylactic model” value is 500000 in data set [4] (animal 1); 380952 in data set [4] (animal 2); 320000 in data set [4] (animal 3); 47058.8 in data set [4] (animal 4); 200000 in data set [4] (animal 5); 34782.6 in data set [4] (animal 6). Also, the “Bacterial load from skin specimens, prophylactic model” value in data set [4] (animal 7) is listed as 176000; in data set [4] (animal 8), 533333; in data set [4] (animal 9), 769231; in data set [4] (animal 10), 1538462; in data set [4] (animal 11), 289655; in data set [4] (animal 12), 252632. Besides, the “Reduction of S. aureus MW2 burden vs vehicle, prophylactic model” value in data set [4] (2% w/w ointment, single treatment 10 minutes after inoculation, n = 12) was determined as 2.8 log. Further, the “Bacterial load from skin specimens, established infection model” value in data set [5] (animal 1) was 5546493; in data set [5] (animal 2), 5663717; in data set [5] (animal 3), 38314176; in data set [5] (animal 4), 4793289; in data set [5] (animal 5), 8342990; in data set [5] (animal 6) it was 7083333. Moreover, the entries for the “Bacterial load from skin specimens, established infection model” value in data set [5] (animal 7) and in data set [5] (animal 8) were 21857924 and 14962594, respectively. In addition, the “Reduction of S. aureus MW2 vs vehicle, established infection model” value in data set [5] (2% w/w ointment, single dose 24 hours after inoculation, n = 8) came to 2.4 log. Moreover, the “bacterial load in skin, Sup. Fig. 12” value in data set [5] (animal 1) stood at 84745.8; in data set [5] (animal 2), 264317; in data set [5] (animal 3), 520833; in data set [5] (animal 4), 633914; in data set [5] (animal 5), 864198; in data set [5] (animal 6) it was 285714. Moreover, the entries for the “bacterial load in skin, Sup. Fig. 12” value in data set [5] (animal 7) and in data set [5] (animal 8) were 1465201 and 754717, respectively.
Take H-GLFDVIKKLLSVI-NH2 [CIT-5]: the “rT (HPLC retention time)” value in data set [1] turned out to be 22.300 min. In data set [2], the “MIC SA” value is above 32 µg/mL.
